Where two headings read alike, the source gives them in different places. Marks after values point to notes of the source that are not given here.
Key:
[1] = system: NF54 strain of P. falciparum; test: Parasite growth inhibition, CQ-sensitive NF54 strain; assay type: cell-based, Plasmodium falciparum
[2] = system: β-hematin (βH) formation; test: NP-40 detergent mediated β-hematin inhibition assay; assay type: biochemical; conditions: read-out: βH inhibition IC50; NP-40 assay
[3] = Kinetic solubility; conditions: for Kinetic solubility FaSSIF / Kinetic solubility pH 6.5: pH 6.5
[4] = system: parasitized erythrocyte, CQ-sensitive D10 strain; test: Inoculum effect measurement of cellular accumulation; assay type: cell-based, Plasmodium falciparum; conditions: IC50 vs initial parasitemia
[5] = system: D6 strain of P. falciparum; conditions: read-out: parasite activity against the D6 strain, HTS; cited from earlier work
[6] = In vitro metabolic stability, rat liver microsomes
[7] = In vitro metabolic stability, human liver microsomes
[8] = system: Chinese hamster ovarian (CHO) cell line; conditions: read-out: CHO IC50
[9] = system: D10 strain of P. falciparum; test: Parasite growth inhibition, CQ-sensitive D10 strain; assay type: cell-based, Plasmodium falciparum
[10] = In vitro metabolic stability, mouse liver microsomes
[11] = 1:1 complex, 40% DMSO; cited from earlier work
[12] = Association constant with Fe; assay type: binding; conditions: for logK (association constant with Fe(III)PPIX): 1:1 complex, 7.5 μM hematin, 40% v/v DMSO, pH 7.5; for Binding constant ratio relative to 12c (K/K12c): from logK values
[13] = system: K1 CQ-resistant strain; conditions: read-out: K1 parasite IC50
[14] = read-out: NF54 parasite IC50, CQ-sensitive NF54 strain
[15] = read-out: D10 parasite IC50, CQ-sensitive D10 strain

In the case of `O=C(Nc1ccccc1)c1cc(C(=O)Nc2nc3ccccc3[nH]2)cc([N+](=O)[O-])c1` [Compound 18, N^1-(1H-Benzo[d]imidazol-2-yl)-5-nitro-N^3-phenylisophthalamide], the IC50 ([1]; Plasmodium falciparum, NF54, read-out: parasite activity (maximum dose concentration)) is reported as > 249000 nM.
With “5-Methoxy-N,N-di(pyridin-4-yl)isophthalamide [Compound 15m]” the IC50 [2] was 22 ± 1 µM and the IC50 [1, 14] was 3000 ± 500 nM.
In the case of “5-(tert-Butyl)-N,N-diphenylisophthalamide [Compound 15j]”, the IC50 [2] is reported as > 1000 µM and the IC50 [1, 14] is reported as 8100 ± 500 nM.
For “5-Nitro-N,N-di(pyridin-4-yl)isophthalamide [Compound 15a]”, the “Kinetic solubility FaSSIF” value [3] was 13 µM, the “Kinetic solubility pH 2” value [3] was 199.7 μM and the “Kinetic solubility pH 6.5” value [3] was < 5 μM. For the same compound, the “inoculum effect / cellular accumulation” value [4] was “larger accumulation ratios”, the IC50 [2] was 4.3 ± 0.1 µM and the IC50 [5] was 190 nM. The Degradation half-life [6] was >150 min, the “Hepatic extraction (EH)” value [6] was <0.30 and the In vitro clearance [6] was <11.6 μL/min/mg protein. For the same compound, the IC50 [1, 14] was 700 ± 200 nM, the Degradation half-life [7] was >150 min and the “Hepatic extraction (EH)” value [7] was <0.42. The In vitro clearance [7] was <11.6 μL/min/mg protein, the IC50 [8] was > 275 µM and the IC50 [9, 15] was 900 ± 100 nM. For the same compound, the Degradation half-life [10] was >150 min, the “Hepatic extraction (EH)” value [10] was <0.33 and the In vitro clearance [10] was <11.6 μL/min/mg protein.
In the case of `CCN(CC)CCCC(C)Nc1ccnc2cc(Cl)ccc12` (stereo not shown) [CQ, chloroquine, reference compound], the “logK (association constant with Fe(III)PPIX)” value (“logK” for short) [11] is listed as 5.52 ± 0.03 ^a, the IC50 ([1]; Plasmodium falciparum, NF54, read-out: NF54 parasite IC50) is listed as 8 ± 2 nM and the IC50 ([9]; Plasmodium falciparum, D10, read-out: D10 parasite IC50) is listed as 21 ± 2 nM.
In the case of `O=C(Nc1ccncc1)c1cc([N+](=O)[O-])cc([N+](=O)[O-])c1` [Compound 12c, 3,5-Dinitro-N-(pyridin-4-yl)benzamide], the “logK” value [12] is reported as 3.20 ± 0.36 and the “Binding constant ratio relative to 12c (K/K12c)” value [12] is reported as 1.
For “5-(tert-Butyl)-N,N-di(pyridin-3-yl)isophthalamide [Compound 15i]”, the “Kinetic solubility FaSSIF” value [3] was 153.6 µM, the “Kinetic solubility pH 2” value [3] was 197.2 μM and the “Kinetic solubility pH 6.5” value [3] was 92.7 μM. For the same compound, the IC50 [2] was 6.8 ± 0.1 µM, the Degradation half-life [6] was 93.2 min and the “Hepatic extraction (EH)” value [6] was 0.4. The In vitro clearance [6] was 33.5 μL/min/mg protein, the IC50 [1, 14] was 600 ± 100 nM and the Degradation half-life [7] was 141.9 min. The “Hepatic extraction (EH)” value [7] was 0.4, the In vitro clearance [7] was 14.1 μL/min/mg protein and the IC50 [8] was 185 µM. It also gave an IC50 [9, 15] of 700 ± 100 nM, an IC50 [13] of 1700 ± 400 nM and a Degradation half-life [10] of 52.4 min. The “Hepatic extraction (EH)” value [10] was 0.6 and the In vitro clearance [10] was 130.3 μL/min/mg protein.
With “5-(tert-Butyl)-N,N-di(pyridin-4-yl)isophthalamide [Compound 15h]” the IC50 [2] was 13.3 ± 0.7 µM and the IC50 [1, 14] was 1600 ± 200 nM.
With “5-Methyl-N,N-diphenylisophthalamide [Compound 15g]” the IC50 [2] was > 1000 µM and the IC50 [1, 14] was 146000 ± 1000 nM.
“5-Cyano-N,N-di(pyridin-4-yl)isophthalamide [Compound 15d]” gave an IC50 [2] of 6.34 ± 0.09 µM, an IC50 [1, 14] of 1900 ± 200 nM and an IC50 [9, 15] of 2000 ± 200 nM.
“5-Nitro-N,N-di(pyridin-3-yl)isophthalamide [Compound 15b]” showed an IC50 [2] of 4.7 ± 0.7 µM and an IC50 [1, 14] of 1320 ± 40 nM.
In the case of “5-Methoxy-N,N-diphenylisophthalamide [Compound 15n]”, the IC50 [2] is reported as > 1000 µM and the IC50 [1, 14] is reported as 37000 ± 13000 nM.
In the case of “N,N-Di(pyridin-4-yl)pyridine-2,6-dicarboxamide [Compound 15o]”, the IC50 [2] is reported as 260 ± 7 µM and the IC50 [1, 14] is reported as > 315000 nM.
With “N,N-Diphenylpyridine-2,6-dicarboxamide [Compound 15p]” the IC50 [2] was > 1000 µM and the IC50 [1, 14] was > 315000 nM.
With “N,N-bis(4-((Dimethylamino)methyl)phenyl)-5-nitroisophthalamide [Compound 17]” the “inoculum effect / cellular accumulation” value [4] was “insignificant inoculum effect”, the IC50 [2] was 7.9 ± 0.2 µM and the IC50 [1, 14] was 1500 ± 200 nM.
Work on “5-Nitro-N,N-diphenylisophthalamide [Compound 15c]” yielded an IC50 [2] of 7 ± 0.2 µM and an IC50 [1, 14] of 1400 ± 200 nM.
“N,N-Di(pyridin-4-yl)isophthalamide [Compound 15k]” gave an IC50 [2] of 507 ± 33 µM and an IC50 [1, 14] of 9000 ± 4000 nM.
With “5-Methyl-N,N-di(pyridin-4-yl)isophthalamide [Compound 15f]” the IC50 [2] was 8 ± 1 µM, the IC50 [1, 14] was 2500 ± 600 nM and the “logK” value [12] was 3.92 ± 0.21. The “Binding constant ratio relative to 12c (K/K12c)” value [12] was 5.24.
“5-Cyano-N,N-diphenylisophthalamide [Compound 15e]” gave an IC50 [2] of 4.4 ± 0.2 µM and an IC50 [9, 15] of 5200 nM.

Source: PMC4945415 (Journal of medicinal chemistry, 2016)
